A short description of this data set: MALDI-TOF screening of Ni^2+ dependent hydrolysis in a combinatorial peptide library. Type of data set: physicochemical. The settings on record: CH3CO-Gly-Ala-Thr-X-His-Z-Lys-Phe-Leu-NH2 library, Ni^2+ 2 mM, pH 8.2, 10 mM Tris, score=24/tm. In short, it runs like this: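 Sublibraries of Ac-Gly-Ala-Ser/Thr-X-His-Z-Lys-Phe-Leu-NH2, randomized at Z and fixed at X, were hydrolyzed at 1 mM total peptide with 2 mM Ni2+ in 10 mM Tris, pH 8.2, at 37 °C or 45 °C. Cleavage was scored visually in MALDI-TOF spectra at 2, 4, 6 and 8 h.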

Regarding Ac-GATHHRKFL-NH2 [THHR], the “hydrolysis score from MALDI-TOF screening” value (“hydrolysis score” below) is 6 (a score of 6 for detection at 4 hours) (37° C.) and 6 (a score of 6 for detection at 4 hours) (45° C.).
As to Ac-GATHHSKFL-NH2 [THHS], the “hydrolysis score” value is 0 (a score of 0 if no trace of the product of hydrolysis was seen after 8 hours of incubation) (37° C.) and 4 (a score of 4 for detection at 6 hours) (45° C.).
For Ac-GATHHTKFL-NH2 [THHT], in that order: 0 (a score of 0 if no trace of the product of hydrolysis was seen after 8 hours of incubation) and 4 (a score of 4 for detection at 6 hours).
In the same order, the values of Ac-GATHHVKFL-NH2 [THHV] are 0 (a score of 0 if no trace of the product of hydrolysis was seen after 8 hours of incubation) and 6 (a score of 6 for detection at 4 hours).
Regarding Ac-GATHHWKFL-NH2 [THHW], the “hydrolysis score” value is, setting by setting: (37° C.) 12 (a score of 12, if it was seen to be partially hydrolysed at 2 hours); (45° C.) 12 (a score of 12, if it was seen to be partially hydrolysed at 2 hours).
Regarding Ac-GATHHYKFL-NH2 [THHY], the “hydrolysis score” value (37° C.) is listed as 0 (a score of 0 if no trace of the product of hydrolysis was seen after 8 hours of incubation) and the “hydrolysis score” value (45° C.) was 6 (a score of 6 for detection at 4 hours).
Regarding Ac-GATIHAKFL-NH2 [TIHA], the “hydrolysis score” value (37° C.) is reported as 0 (a score of 0 if no trace of the product of hydrolysis was seen after 8 hours of incubation) and the “hydrolysis score” value (45° C.) is given as 0 (a score of 0 if no trace of the product of hydrolysis was seen after 8 hours of incubation).
On to Ac-GATIHDKFL-NH2 [TIHD], for which the “hydrolysis score” value was 0 (a score of 0 if no trace of the product of hydrolysis was seen after 8 hours of incubation) (37° C.) and 0 (a score of 0 if no trace of the product of hydrolysis was seen after 8 hours of incubation) (45° C.).
Take Ac-GATIHFKFL-NH2 [TIHF]: the “hydrolysis score” value (37° C.) was 0 (a score of 0 if no trace of the product of hydrolysis was seen after 8 hours of incubation) and the “hydrolysis score” value (45° C.) is given as 0 (a score of 0 if no trace of the product of hydrolysis was seen after 8 hours of incubation).
Regarding Ac-GATIHGKFL-NH2 [TIHG], the “hydrolysis score” value is, setting by setting: (37° C.) 0 (a score of 0 if no trace of the product of hydrolysis was seen after 8 hours of incubation); (45° C.) 0 (a score of 0 if no trace of the product of hydrolysis was seen after 8 hours of incubation).
As to Ac-GATIHHKFL-NH2 [TIHH], the “hydrolysis score” value by setting is: (37° C.) 0 (a score of 0 if no trace of the product of hydrolysis was seen after 8 hours of incubation); (45° C.) 0 (a score of 0 if no trace of the product of hydrolysis was seen after 8 hours of incubation).
Turning to Ac-GATIHIKFL-NH2 [TIHI], the “hydrolysis score” value by setting is: (37° C.) 0 (a score of 0 if no trace of the product of hydrolysis was seen after 8 hours of incubation); (45° C.) 0 (a score of 0 if no trace of the product of hydrolysis was seen after 8 hours of incubation).
In the case of Ac-GATIHKKFL-NH2 [TIHK], the “hydrolysis score” value (37° C.) was 0 (a score of 0 if no trace of the product of hydrolysis was seen after 8 hours of incubation) and the “hydrolysis score” value (45° C.) was 3 (a score of 3 for detection at 8 hours).
For Ac-GATIHLKFL-NH2 [TIHL], in that order: 0 (a score of 0 if no trace of the product of hydrolysis was seen after 8 hours of incubation) and 0 (a score of 0 if no trace of the product of hydrolysis was seen after 8 hours of incubation).
Ac-GATIHNKFL-NH2 [TIHN]: the “hydrolysis score” value (37° C.) was 0 (a score of 0 if no trace of the product of hydrolysis was seen after 8 hours of incubation) and the “hydrolysis score” value (45° C.) is on record as 0 (a score of 0 if no trace of the product of hydrolysis was seen after 8 hours of incubation).
In the case of Ac-GATIHPKFL-NH2 [TIHP], the “hydrolysis score” value is 0 (a score of 0 if no trace of the product of hydrolysis was seen after 8 hours of incubation) (37° C.) and 0 (a score of 0 if no trace of the product of hydrolysis was seen after 8 hours of incubation) (45° C.).
Regarding Ac-GATIHQKFL-NH2 [TIHQ], the “hydrolysis score” value by setting is: (37° C.) 0 (a score of 0 if no trace of the product of hydrolysis was seen after 8 hours of incubation); (45° C.) 0 (a score of 0 if no trace of the product of hydrolysis was seen after 8 hours of incubation).
As to Ac-GATIHRKFL-NH2 [TIHR], the “hydrolysis score” value is, setting by setting: (37° C.) 0 (a score of 0 if no trace of the product of hydrolysis was seen after 8 hours of incubation); (45° C.) 3 (a score of 3 for detection at 8 hours).
Regarding Ac-GATIHSKFL-NH2 [TIHS], the “hydrolysis score” value runs as follows: (37° C.) 0 (a score of 0 if no trace of the product of hydrolysis was seen after 8 hours of incubation); (45° C.) 0 (a score of 0 if no trace of the product of hydrolysis was seen after 8 hours of incubation).
In the case of Ac-GATIHTKFL-NH2 [TIHT], the “hydrolysis score” value was 0 (a score of 0 if no trace of the product of hydrolysis was seen after 8 hours of incubation) (37° C.) and 0 (a score of 0 if no trace of the product of hydrolysis was seen after 8 hours of incubation) (45° C.).
For the substance Ac-GATIHWKFL-NH2 [TIHW], the “hydrolysis score” value reads like this: (37° C.) 3 (a score of 3 for detection at 8 hours); (45° C.) 3 (a score of 3 for detection at 8 hours).
Regarding Ac-GATIHYKFL-NH2 [TIHY], the “hydrolysis score” value runs as follows: (37° C.) 0 (a score of 0 if no trace of the product of hydrolysis was seen after 8 hours of incubation); (45° C.) 0 (a score of 0 if no trace of the product of hydrolysis was seen after 8 hours of incubation).
On to Ac-GATKHAKFL-NH2 [TKHA], for which the “hydrolysis score” value (37° C.) is listed as 0 (a score of 0 if no trace of the product of hydrolysis was seen after 8 hours of incubation) and the “hydrolysis score” value (45° C.) is recorded as 3 (a score of 3 for detection at 8 hours).
Consider Ac-GATKHDKFL-NH2 [TKHD], for which the “hydrolysis score” value runs as follows: (37° C.) 0 (a score of 0 if no trace of the product of hydrolysis was seen after 8 hours of incubation); (45° C.) 0 (a score of 0 if no trace of the product of hydrolysis was seen after 8 hours of incubation).
Turning to Ac-GATKHEKFL-NH2 [TKHE], the “hydrolysis score” value (37° C.) is given as 0 (a score of 0 if no trace of the product of hydrolysis was seen after 8 hours of incubation) and the “hydrolysis score” value (45° C.) was 0 (a score of 0 if no trace of the product of hydrolysis was seen after 8 hours of incubation).
Take Ac-GATKHFKFL-NH2 [TKHF]: the “hydrolysis score” value (37° C.) is recorded as 3 (a score of 3 for detection at 8 hours) and the “hydrolysis score” value (45° C.) was 6 (a score of 6 for detection at 4 hours).
In the same order, the values of Ac-GATKHGKFL-NH2 [TKHG] are 0 (a score of 0 if no trace of the product of hydrolysis was seen after 8 hours of incubation) and 0 (a score of 0 if no trace of the product of hydrolysis was seen after 8 hours of incubation).
For Ac-GATKHHKFL-NH2 [TKHH], in that order: 0 (a score of 0 if no trace of the product of hydrolysis was seen after 8 hours of incubation) and 4 (a score of 4 for detection at 6 hours).
For the substance Ac-GATKHIKFL-NH2 [TKHI], the “hydrolysis score” value is, setting by setting: (37° C.) 4 (a score of 4 for detection at 6 hours); (45° C.) 12 (a score of 12, if it was seen to be partially hydrolysed at 2 hours).
As to Ac-GATKHKKFL-NH2 [TKHK], the “hydrolysis score” value by setting is: (37° C.) 3 (a score of 3 for detection at 8 hours); (45° C.) 12 (a score of 12, if it was seen to be partially hydrolysed at 2 hours).
Take Ac-GATKHLKFL-NH2 [TKHL]: the “hydrolysis score” value reads like this: (37° C.) 4 (a score of 4 for detection at 6 hours); (45° C.) 12 (a score of 12, if it was seen to be partially hydrolysed at 2 hours).
As to Ac-GATKHMKFL-NH2 [TKHM], the “hydrolysis score” value is reported as 3 (a score of 3 for detection at 8 hours) (37° C.) and 4 (a score of 4 for detection at 6 hours) (45° C.).
In the same order, the values of Ac-GATKHNKFL-NH2 [TKHN] are 0 (a score of 0 if no trace of the product of hydrolysis was seen after 8 hours of incubation) and 0 (a score of 0 if no trace of the product of hydrolysis was seen after 8 hours of incubation).
For Ac-GATKHPKFL-NH2 [TKHP], in that order: 0 (a score of 0 if no trace of the product of hydrolysis was seen after 8 hours of incubation) and 0 (a score of 0 if no trace of the product of hydrolysis was seen after 8 hours of incubation).
For Ac-GATKHQKFL-NH2 [TKHQ], in that order: 0 (a score of 0 if no trace of the product of hydrolysis was seen after 8 hours of incubation) and 0 (a score of 0 if no trace of the product of hydrolysis was seen after 8 hours of incubation).
For the substance Ac-GATKHRKFL-NH2 [TKHR], the “hydrolysis score” value was 4 (a score of 4 for detection at 6 hours) (37° C.) and 12 (a score of 12, if it was seen to be partially hydrolysed at 2 hours) (45° C.).

These data come from patent publication US8969516B2, “Method of hydrolysis of peptide bond” (priority 2006, dated 2015).
